Measurements: US10239887B2, “Positive allosteric modulators of the muscarinic acetylcholine receptor M4” (Vanderbilt University, priority 2016, dated 2019)
Where a name gives a salt, the structure may show the parent alone.

Target: T1, human mAChR M4 (Homo sapiens, UniProt P08173)
T1 sequence (P08173 1-479): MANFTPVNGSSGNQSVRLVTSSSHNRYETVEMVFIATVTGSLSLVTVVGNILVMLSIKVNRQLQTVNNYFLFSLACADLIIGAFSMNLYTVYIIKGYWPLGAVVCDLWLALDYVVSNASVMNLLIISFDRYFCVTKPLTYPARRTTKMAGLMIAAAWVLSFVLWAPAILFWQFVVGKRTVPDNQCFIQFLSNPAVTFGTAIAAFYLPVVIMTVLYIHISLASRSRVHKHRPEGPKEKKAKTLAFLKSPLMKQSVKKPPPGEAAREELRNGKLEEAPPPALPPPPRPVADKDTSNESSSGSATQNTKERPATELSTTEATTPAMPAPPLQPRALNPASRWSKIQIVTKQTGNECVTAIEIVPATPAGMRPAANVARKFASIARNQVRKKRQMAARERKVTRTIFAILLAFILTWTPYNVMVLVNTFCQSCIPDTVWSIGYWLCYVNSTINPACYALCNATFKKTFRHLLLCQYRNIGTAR
Assay: mAChR M4 cell-based functional assay (calcium flux), human M4
Settings: Table 10; for EC50: Human M4 EC50 (nM); for Emax: % ACh maximum at 30 μM

[1] = calcium flux, PAM activity with EC20 acetylcholine

Question: With `COc1ccc(C2CC2Nc2ncnc3c2sc2ncc(Cl)c(C)c23)cc1` (centres unmarked) [Compound 236, 8-chloro-N-[2-(4-methoxyphenyl)cyclopropyl]-9-methyl-pyrido [3′,2′:4,5]thieno[3,2-d] pyrimidin-4-amine dihydrochloride] as the compound, how does the EC50 [1] read?
Answer: 5660 nM

Question: What about the Emax of the same compound?
Answer: 61.2%

Question: `Cc1c(Cl)cnc2sc3c(NCc4ccc(S(C)(=O)=O)cc4)ncnc3c12` [Compound 237, 8-chloro-9-methyl-N-[(4-methylsulfonylphenyl)methyl]pyrido [3′,2′:4,5]thieno[3,2-d] pyrimidin-4-amine dihydrochloride] was tested. Which EC50 [1] did it give?
Answer: 1320 nM

Question: And the Emax?
Answer: 54.5%

Question: Which EC50 [1] does the source give for `Cc1ncc(CNc2ncnc3c2sc2ncc(Cl)c(C)c23)cn1` [Compound 238, 8-chloro-9-methyl-N-[(2-methylpyrimidin-5-yl)methyl]pyrido [3′,2′:4,5]thieno[3,2-d] pyrimidin-4-amine dihydrochloride] here?
Answer: 382 nM

Question: What about the Emax of the same compound?
Answer: 61%

Question: With `Cc1nc2sc3c(NC4CN(c5ccnc(C6(O)CCC6)c5)C4)ncnc3c2c(C)c1Cl` [Compound 239, 1-[4-[3-[(8-chloro-7,9-dimethyl-pyrido [3′,2′:4,5]thieno[3,2-d]pyrimidin-4-yl)amino]azetidin-1-yl]-2-pyridyl]cyclobutanol] as the compound, how does the EC50 [1] read?
Answer: 1920 nM

Question: And the Emax?
Answer: 72.3%

Question: What does the source list for `Cc1nc2oc3c(NC4CN(c5ncc(C(F)(F)F)cn5)C4)ncnc3c2c(C)c1Cl` [Compound 241, 8-chloro-7,9-dimethyl-N-[1-[5-(trifluoromethyl)pyrimidin-2-yl]yl]azetidin-3-yl]pyrido [3′,2′:4,5]furo[3,2-d] pyrimidin-4-amine hydrochloride]?
Answer: EC50 [1]: 1010 nM; Emax: 39.7%

Question: Which results are given for `Cc1nc2oc3c(NC4CC4c4ccc(F)c(F)c4)ncnc3c2c(C)c1Cl` (centres unmarked) [Compound 247, 8-chloro-N-[2-(3,4-difluorophenyl)cyclopropyl]-7,9-dimethyl-pyrido [3′,2′:4,5]furo[3,2-d] pyrimidin-4-amine hydrochloride]?
Answer: EC50 [1]: 7840 nM; Emax: 70%

Question: `Cc1nc2oc3c(NCc4ccc(S(C)(=O)=O)cc4)ncnc3c2c(C)c1Cl` [Compound 248, 8-chloro-7,9-dimethyl-N-[(4-methylsulfonylphenyl)methyl]pyrido[3′,2′:4,5] furo[3,2-d]pyrimidin-4-amine hydrochloride] was tested. Which EC50 [1] did it give?
Answer: 1250 nM

Question: And the Emax?
Answer: 45.5%

Question: Which results are given for `Cc1nc2oc3c(NCc4ccc(C(C)(C)O)cc4)ncnc3c2c(C)c1Cl` [Compound 251, 2-[4-[[(8-chloro-7,9-dimethyl-pyrido [3′,2′:4,5]furo[3,2-d]pyrimidin-4-yl)amino]methyl]phenyl]propan-2-ol]?
Answer: EC50 [1]: 1160 nM; Emax: 61.8%

Question: `COc1ccc(CNc2ncnc3c2oc2nc(C)c(Cl)c(C)c23)cc1F` [Compound 253, 8-chloro-N-[(3-fluoro-4-methoxy-phenyl)methyl]-7,9-dimethyl-pyrido [3′,2′:4,5]furo[3,2-d] pyrimidin-4-amine hydrochloride] was tested. Which EC50 (unit μM (bounds)) did it give?
Answer: > 10000 nM

Question: And the Emax?
Answer: 41.9%

Question: What does the source list for `Cc1nc2sc3c(N4CCC(F)(F)C4)ncnc3c2c(C)c1Cl` [Compound 255, 8-chloro-4-(3,3-difluoropyrrolidin-1-yl)-7,9-dimethyl-pyrido [3′,2′:4,5]thieno[3,2-d] pyrimidine hydrochloride]?
Answer: EC50 [1]: 2340 nM; Emax: 73%

Question: `Cc1nc2sc3c(N4CC5CC5C4)ncnc3c2c(C)c1Cl` (centres unmarked) [Compound 257, 4-(3-azabicyclo[3.1.0]hexan-3-yl)-8-chloro-7,9-dimethyl-pyrido [3′,2′:4,5]thieno[3,2-d] pyrimidine hydrochloride] was tested. Which EC50 [1] did it give?
Answer: 1010 nM

Question: What about the Emax of the same compound?
Answer: 64.4%

Question: `Cc1nc2sc3c(N4CCC(F)C4)ncnc3c2c(C)c1Cl` (centres unmarked) [Compound 258, 8-chloro-4-(3-fluoropyrrolidin-1-yl)-7,9-dimethyl-pyrido [3′,2′:4,5]thieno[3,2-d] pyrimidine hydrochloride] was tested. Which EC50 [1] did it give?
Answer: 1510 nM

Question: And the Emax?
Answer: 64.9%

Question: `Cc1nc2sc3c(N4CC5(COC5)C4)ncnc3c2c(C)c1Cl` [Compound 260, 6-(8-chloro-7,9-dimethyl-pyrido [3′,2′:4,5]thieno[3,2-d]pyrimidin-4-yl)-2-oxa-6-azaspiro[3.3]heptane hydrochloride] was tested. Which Emax did it give?
Answer: 70.9%

Question: Which results are given for `Cc1nc2sc3c(N4CC(F)(F)C4)ncnc3c2c(C)c1Cl` [Compound 261, 8-chloro-4-(3,3-difluoroazetidin-1-yl)-7,9-dimethyl-pyrido [3′,2′:4,5]thieno[3,2-d] pyrimidine hydrochloride]?
Answer: EC50 [1]: 3920 nM; Emax: 76.2%

Question: Which EC50 [1] does the source give for `Cc1nc2sc3c(N4CC(c5ccncc5)C4)ncnc3c2c(C)c1Cl` [Compound 262, 8-chloro-7,9-dimethyl-4-[3-(4-pyridyl)azetidin-1-yl]pyrido[3′,2′:4,5] thieno[3,2-d]pyrimidine dihydrochloride] here?
Answer: 1520 nM

Question: What about the Emax of the same compound?
Answer: 83.8%

Question: `Cc1nc2sc3c(NC4CN(c5ncc(F)cn5)C4)ncnc3c2c(C)c1Cl` [Compound 263, 8-chloro-N-[1-(5-fluoropyrimidin-2-yl)azetidin-3-yl]-7,9-dimethyl-pyrido[3′,2′:4,5] thieno[3,2-d]pyrimidin-4-amine hydrochloride] was tested. Which EC50 [1] did it give?
Answer: 9520 nM

Question: And the Emax?
Answer: 72.6%

Question: What does the source list for `Cc1nc2sc3c(NC4CCC4)ncnc3c2c(C)c1Cl` [Compound 266, 8-chloro-N-cyclobutyl-7,9-dimethyl-pyrido [3′,2′:4,5]thieno[3,2-d] pyrimidin-4-amine hydrochloride]?
Answer: EC50 [1]: 1660 nM; Emax: 55.5%

Question: For `COc1ccc(CNc2ncnc3c2sc2nc(C)c(Cl)c(C)c23)cc1OC` [Compound 267, 8-chloro-N-[(3,4-dimethoxyphenyl)methyl]-7,9-dimethyl-pyrido[3′,2′:4,5]thieno [3,2-d]pyrimidin-4-amine hydrochloride], which EC50 (unit μM (bounds)) is on record?
Answer: > 10000 nM

Question: And the Emax?
Answer: 33.6%

Question: With `Cc1nc2sc3c(NCc4ccc(-n5ccnc5)cc4)ncnc3c2c(C)c1Cl` [Compound 268, 8-chloro-N-[(4-imidazol-1-ylphenyl)methyl]-7,9-dimethyl-pyrido[3′,2′:4,5] thieno[3,2-d]pyrimidin-4-amine dihydrochloride] as the compound, how does the EC50 [1] read?
Answer: 3170 nM

Question: And the Emax?
Answer: 31.3%

Question: Which EC50 [1] does the source give for `Cc1nc2sc3c(NCc4ccc(CN5CCOCC5)cc4)ncnc3c2c(C)c1Cl` [Compound 269, 8-chloro-7,9-dimethyl-N-[[4-(morpholinomethyl)phenyl]methyl]pyrido [3′,2′:4,5]thieno[3,2-d] pyrimidin-4-amine dihydrochloride] here?
Answer: 3570 nM

Question: What about the Emax of the same compound?
Answer: 71.2%

Question: How did the EC50 (unit μM (bounds)) turn out when `Cc1nc2sc3c(NCc4ccc5c(c4)CC(C)(C)O5)ncnc3c2c(C)c1Cl` [Compound 270, 8-chloro-N-[(2,2-dimethyl-3H-benzofuran-5-yl)methyl]-7,9-dimethyl-pyrido[3′,2′:4,5]thieno [3,2-d]pyrimidin-4-amine dihydrochloride] was run?
Answer: > 10000 nM

Question: What about the Emax of the same compound?
Answer: 22%

Question: What does the source list for `Cc1ncc(CNc2ncnc3c2sc2nc(C)c(Cl)c(C)c23)cn1` [Compound 271, 8-chloro-7,9-dimethyl-N-[(2-methylpyrimidin-5-yl)methyl]pyrido [3′,2′:4,5]thieno[3,2-d] pyrimidin-4-amine dihydrochloride]?
Answer: EC50 (unit μM (bounds)): > 10000 nM; Emax: 74.7%

Question: What does the source list for `Cc1nc2sc3c(NC4CN(c5ncc(C(F)(F)F)cn5)C4)ncnc3c2c(C)c1Cl` [Compound 272, 8-chloro-7,9-dimethyl-N-[1-[5-(trifluoromethyl)pyrimidin-2-yl]azetidin-3-yl]pyrido[3′,2′:4,5] hieno[3,2-d]pyrimidin-4-amine dihydrochloride]?
Answer: EC50 [1]: 3620 nM; Emax: 60.6%

Question: How did the EC50 [1] turn out when `Cc1nc2sc3c(NCC4CCOC4)ncnc3c2c(C)c1Cl` (centres unmarked) [Compound 273, 8-chloro-7,9-dimethyl-N-(tetrahydrofuran-3-ylmethyl) pyrido[3′,2′:4,5]thieno [3,2-d]pyrimidin-4-amine dihydrochloride] was run?
Answer: 1840 nM

Question: What about the Emax of the same compound?
Answer: 59.5%

Question: Which EC50 (unit μM (bounds)) does the source give for `Cc1nc2sc3c(NCc4ccc(C5(O)CCC5)cc4)ncnc3c2c(C)c1Cl` [Compound 276, 1-[4-[[(8-chloro-7,9-dimethyl-pyrido [3′,2′:4,5]thieno[3,2-d]pyrimidin-4-yl)amino]methyl]phenyl]cyclobutanol] here?
Answer: > 10000 nM

Question: And the Emax?
Answer: 45.3%

Question: What does the source list for `Cc1nc2sc3c(NCc4cccc(C5(O)CCC5)c4)ncnc3c2c(C)c1Cl` [Compound 277, 1-[3-[[(8-chloro-7,9-dimethyl-pyrido [3′,2′:4,5]thieno[3,2-d]pyrimidin-4-yl)amino]methyl]phenyl]cyclobutanol]?
Answer: EC50 [1]: 2320 nM; Emax: 70.5%

Question: `Cc1nc2sc3c(NCc4ccc(C(C)(C)O)c(F)c4)ncnc3c2c(C)c1Cl` [Compound 278, 2-[4-[[(8-chloro-7,9-dimethyl-pyrido [3′,2′:4,5]thieno[3,2-d]pyrimidin-4-yl)amino]methyl]-2-fluoro-phenyl] propan-2-ol] was tested. Which EC50 [1] did it give?
Answer: 3800 nM

Question: What about the Emax of the same compound?
Answer: 37%

Question: `Cc1nc2sc3c(NCc4ccc(C(C)(C)O)cc4F)ncnc3c2c(C)c1Cl` [Compound 279, 2-[4-[[(8-chloro-7,9-dimethyl-pyrido [3′,2′:4,5]thieno[3,2-d]pyrimidin-4-yl)amino]methyl]-3-fluoro-phenyl] propan-2-ol] was tested. Which EC50 [1] did it give?
Answer: 6020 nM

Question: And the Emax?
Answer: 49.4%

Question: Which Emax does the source give for `COc1nnc2sc3c(NCc4ccc(C(C)(C)O)cc4)ncnc3c2c1C` [Compound 280, 2-[4-[[(3-methoxy-4-methyl-pyrimido [4′,5′:4,5]thieno[2,3-c]pyridazin-8-yl)amino]methyl]phenyl]propan-2-ol] here?
Answer: 86.7%
